Experimental findings from patent publication US20250205342A1, “IRAK DEGRADERS AND USES THEREOF” (Kymera Therapeutics, Inc., priority 2022, published 2025) are described below.

The target of experiment [1] is T1, IRAK4 (Homo sapiens, UniProt Q9NWZ3).
T1 sequence (Q9NWZ3 1-460): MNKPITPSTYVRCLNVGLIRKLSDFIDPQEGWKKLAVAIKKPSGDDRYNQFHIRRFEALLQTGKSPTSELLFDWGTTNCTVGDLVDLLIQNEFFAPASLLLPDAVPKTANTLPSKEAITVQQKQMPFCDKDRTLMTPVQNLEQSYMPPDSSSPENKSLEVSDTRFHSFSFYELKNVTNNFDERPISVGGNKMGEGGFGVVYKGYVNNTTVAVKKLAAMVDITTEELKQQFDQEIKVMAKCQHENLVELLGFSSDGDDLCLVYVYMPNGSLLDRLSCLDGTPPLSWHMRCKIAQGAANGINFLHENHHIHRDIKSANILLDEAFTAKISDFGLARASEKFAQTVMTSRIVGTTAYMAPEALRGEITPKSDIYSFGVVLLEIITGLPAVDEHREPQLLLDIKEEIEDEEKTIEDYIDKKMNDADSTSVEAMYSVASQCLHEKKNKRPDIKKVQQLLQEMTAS
The experiment in a line: IRAK4 degradation in OCI-LY10 (MSD, Meso Scale Discovery). It counts as cell-based. Details: endogenous in cells; host or cells: OCI-LY10. The following applies: OCI-LY10 cells, 24 h. The protocol: Degradation of IRAK4 in OCI-LY10 was quantitatively measured using Meso Scale Discovery technology. OCI-LY10 cells were seeded in 96-well plates (Corning 3799) with a density of 300,000 cells per well in 100 μL fresh media. Compounds were then added to the assay plates with a final top concentration of 1 to 10 μM in a 1:3 dilution series with total of 8 doses. The assay plates were then incubated for 4 to 24 hours at 37° C. under 5% CO2. The assay plates were then centrifuged for 5 minutes and the cell pellets were treated with 100 μL/well RIPA lysis buffer (Boston BioProducts BP-115D) with proteinase inhibitors. To prepare MSD assay plates (Meso Scale Discovery Catalog number L15XA-3), the plates were coated with 2 ug/mL capture antibody (mouse Anti-IRAK4 antibody [2H9], ab119942) in PBS, at 40 μL/well. The plates were then incubated overnight at […], washed 3 times with 150 μL/well TBST buffer (Cell Signaling Technology, Catalog number 9997S) and blocked with 150 μL/well blocking buffer (Meso Scale Discovery Catalog number R^93BA-4). Cell lysates were then added to MSD assay plates and the plates were incubated at room temperature for 1 hour. The plates were then washed 3 times with 150 μL/well TBST buffer and 25 μL/well primary detection antibody (rabbit Anti-IRAK4 antibody [Y279], from Abcam. Catalog number ab32511, 1 μg/mL). The assay plates were then incubated at room temperature for 1 hour, washed 3 times with 150 μL/well TBST buffer and 25 μL/well secondary detection antibody, SULFO-TAG anti-rabbit antibody were added (anti-rabbit antibody from Meso Scale Discovery, Catalog number R^32AB-1, 1 μg/mL). The assay plates were then incubated at room temperature for 1 hour, washed 3 times with 150 μL/well TBST buffer, and 150 μL/well MSD reading buffer (Meso Scale Discovery catalog number R^92TC-2) was added. The plates were then analyzed by a MSD reader (Meso Scale Discovery, Model Quick Plex SQ 120). The data was then analyzed by software Prism 7.0 from GraphPad and the dose-depended IRAK4 degradation were fit using a three-parameter logistic equation to calculate DC50.
(§1) IRAK4 MSD degradation in OCI-LY10 results at 4 and 24 hrs and hPBMC at 20 hrs for compounds of the invention are presented in Table 3. The letter codes for IRAK4 DC50 include: A (<0.1 μM), B (0.1-1.0 μM), C(>1.0-10.0 μM), D (>10.0 μM or not determined).

Experiment [2] deals with T1, IRAK4. As to the kind of experiment: hPBMC IRAK4 degradation flow assay (monocytes). It is filed as cell-based. Details: endogenous in cells; host or cells: human PBMCs (monocytes, CD14 positive gate). The settings on record: CD14 positive monocytes, 20 h, read-out: hPBMC monocyte DC50 at 20 h. The method, then:
In the hPBMC IRAK4 degradation flow assay, frozen PBMCs were thawed into RPMI with 10% FBS and allowed to recover. On the same day as thawed, PBMCs were plated in 96 well plate, 90 μL per well. Compound plates were prepared and a 10 point, 5-fold dilution was performed with a final DMSO concentration of 0.1%. Compound 10 μL per well was added, sealed and incubated at 37° C., 5% CO2 for 20 hours (for 4 hour treatment, compounds were prepared and added the following day). Following the treatment incubation period (day 1), 1.6% PFA was added to PBMC plate and placed on plate shaker for 30 seconds and incubated for 10 mins at room temperature. Cells were spun down and washed two times with PBS/0.5% BSA, aspirated to pellet and placed into −80° C. freezer until further processing for flow. On the flow run day, PBMC plates were thawed and samples were transferred to PCR plates. The pre-perm staining cocktail (CD3 Ax488/CD8 BUV805/CD14 BUV395/CD16/56 BV711/CD19 BV785) was added to samples and incubated for 30 minutes at room temperature. Samples were washed two times and permeabilized with methanol for 10 minutes at 4° C. Samples were washed two times and the post-perm staining cocktail (CD4 PE/IRAK4 Ax647 BD #560315) was added and incubated for 30 minutes at room temperature. Samples were washed two times with PBS/BSA and run on a BD LSRFortessa. Mononuclear cells are gated by SSCH/FSCH and single cells. Monocytes are then gated through CD14 positive gate and lymphocytes are gated through CD14 negative gate. To determine absolute DC50 and max degradation values, MFI values were normalized to DMSO max and 20 hour 10 µM min control. Twenty hour dose curves were calculated using a 4 parameter logistic regression curve fit, no constraints (Top doses were removed if hook effects were observed and the bottom was constrained to 0).
as §1

For the molecule `COc1cc2nn([C@H]3CC[C@H](CNCCOCCOCCNc4cncc(N5CCC[C@H](C(=O)Nc6ccc(=O)n(CC(=O)O)c6)C5)c4)CC3)cc2cc1NC(=O)c1cccc(C(F)(F)F)n1` [Compound I-1], the DC50 in experiment [1] is greater than 10 µM; in experiment [2], 1 to 10 µM.
As for `O=C(O)Cn1cc(NC(=O)[C@H]2CCCN(c3cncc(NCCOCCOCCNC[C@H]4CC[C@H](n5cc(NC(=O)c6cnn7ccc(N8C[C@H]9C[C@@H]8CO9)nc67)c(C(F)F)n5)CC4)c3)C2)ccc1=O` [Compound I-2], the DC50 in experiment [1] and in experiment [2] was greater than 10 µM each time.
`COc1cc2nn([C@H]3CC[C@H](CNCCOCCOCCOCCOCCNc4cncc(N5CCC[C@H](C(=O)Nc6ccc(=O)n(CC(=O)O)c6)C5)c4)CC3)cc2cc1NC(=O)c1cccc(C(F)(F)F)n1` [Compound I-3]: the half-maximal degradation concentration (DC50) in experiment [1] and in experiment [2] was greater than 10 µM each time.
With `O=C(O)Cn1cc(NC(=O)[C@H]2CCCN(c3cncc(NCCOCCOCCOCCOCCNC[C@H]4CC[C@H](n5cc(NC(=O)c6cnn7ccc(N8C[C@H]9C[C@@H]8CO9)nc67)c(C(F)F)n5)CC4)c3)C2)ccc1=O` [Compound I-4], the DC50 in experiment [1] and in experiment [2] was greater than 10 µM each time.
Turning to `CCOC(=O)Cn1cc(NC(=O)[C@H]2CCCN(c3cncc(NCCOCCOCCNC[C@H]4CC[C@H](n5cc6cc(NC(=O)c7cccc(C(F)(F)F)n7)c(OC)cc6n5)CC4)c3)C2)ccc1=O` [Compound I-5], the 50% degradation concentration (DC50) was greater than 10 µM in experiment [1] and 1 to 10 µM in experiment [2].
The matching figures for `CCOC(=O)Cn1cc(NC(=O)[C@H]2CCCN(c3cncc(NCCOCCOCCOCCOCCNC[C@H]4CC[C@H](n5cc(NC(=O)c6cnn7ccc(N8C[C@H]9C[C@@H]8CO9)nc67)c(C(F)F)n5)CC4)c3)C2)ccc1=O` [Compound I-6]: greater than 10 µM and greater than 10 µM.
The matching figures for `COc1cc2nn([C@H]3CC[C@H](CNCCNc4cncc(N5CCC[C@H](C(=O)Nc6ccc(=O)n(CC(=O)O)c6)C5)c4)CC3)cc2cc1NC(=O)c1cccc(C(F)(F)F)n1` [Compound I-7]: greater than 10 µM and greater than 10 µM.
The matching figures for `O=C(O)Cn1cc(NC(=O)[C@H]2CCCN(c3cncc(NCCNC[C@H]4CC[C@H](n5cc(NC(=O)c6cnn7ccc(N8C[C@H]9C[C@@H]8CO9)nc67)c(C(F)F)n5)CC4)c3)C2)ccc1=O` [Compound I-8]: greater than 10 µM and greater than 10 µM.
Consider `COc1cc2nn([C@H]3CC[C@H](CN4CCC(OCC#Cc5cncc(N6CCC[C@H](C(=O)Nc7ccc(=O)n(CC(=O)O)c7)C6)c5)CC4)CC3)cc2cc1NC(=O)c1cccc(C(F)(F)F)n1` [Compound I-9], for which the results for the DC50 in experiment [1] and in experiment [2] were greater than 10 µM and 0.1 to 1 µM, respectively.
As for `COc1cc2nn([C@H]3CC[C@H](CN4CCC(c5cncc(N6CCC[C@H](C(=O)Nc7ccc(=O)n(CC(=O)O)c7)C6)c5)CC4)CC3)cc2cc1NC(=O)c1cccc(C(F)(F)F)n1` [Compound I-10], the DC50 in experiment [1] and in experiment [2] was greater than 10 µM in each case.
For `O=C(O)Cn1cc(NC(=O)[C@H]2CCCN(c3cncc(C#CCOC4CCN(C[C@H]5CC[C@H](n6cc(NC(=O)c7cnn8ccc(N9C[C@H]%10C[C@@H]9CO%10)nc78)c(C(F)F)n6)CC5)CC4)c3)C2)ccc1=O` [Compound I-11], the DC50 in experiment [1] and in experiment [2] was greater than 10 µM in each case.
As to `O=C(O)Cn1cc(NC(=O)[C@H]2CCCN(c3cncc(C4CCN(C[C@H]5CC[C@H](n6cc(NC(=O)c7cnn8ccc(N9C[C@H]%10C[C@@H]9CO%10)nc78)c(C(F)F)n6)CC5)CC4)c3)C2)ccc1=O` [Compound I-12], the DC50 in experiment [1] and in experiment [2] was greater than 10 µM throughout.
As for `CCOC(=O)Cn1cc(NC(=O)[C@H]2CCCN(c3cncc(NCCOCCOCCOCCOCCNC[C@H]4CC[C@H](n5cc6cc(NC(=O)c7cccc(C(F)(F)F)n7)c(OC)cc6n5)CC4)c3)C2)ccc1=O` [Compound I-13], the DC50 was greater than 10 µM in experiment [1] and 1 to 10 µM in experiment [2].
The matching figures for `CCOC(=O)Cn1cc(NC(=O)[C@H]2CCCN(c3cncc(NCCNC[C@H]4CC[C@H](n5cc6cc(NC(=O)c7cccc(C(F)(F)F)n7)c(OC)cc6n5)CC4)c3)C2)ccc1=O` [Compound I-14]: greater than 10 µM and greater than 10 µM.
The matching figures for `CCOC(=O)Cn1cc(NC(=O)[C@H]2CCCN(c3cncc(NCCOCCOCCNC[C@H]4CC[C@H](n5cc(NC(=O)c6cnn7ccc(N8C[C@H]9C[C@@H]8CO9)nc67)c(C(F)F)n5)CC4)c3)C2)ccc1=O` [Compound I-15]: greater than 10 µM and greater than 10 µM.
The matching figures for `CCOC(=O)Cn1cc(NC(=O)[C@H]2CCCN(c3cncc(NCCNC[C@H]4CC[C@H](n5cc(NC(=O)c6cnn7ccc(N8C[C@H]9C[C@@H]8CO9)nc67)c(C(F)F)n5)CC4)c3)C2)ccc1=O` [Compound I-16]: greater than 10 µM and greater than 10 µM.
Take `CCOC(=O)Cn1cc(NC(=O)[C@H]2CCCN(c3cncc(C4CCN(C[C@H]5CC[C@H](n6cc7cc(NC(=O)c8cccc(C(F)(F)F)n8)c(OC)cc7n6)CC5)CC4)c3)C2)ccc1=O` [Compound I-17]: the values for the DC50 in experiment [1] and in experiment [2] were greater than 10 µM and 1 to 10 µM, respectively.
On to `CCOC(=O)Cn1cc(NC(=O)[C@H]2CCCN(c3cncc(C4CCN(C[C@H]5CC[C@H](n6cc(NC(=O)c7cnn8ccc(N9C[C@H]%10C[C@@H]9CO%10)nc78)c(C(F)F)n6)CC5)CC4)c3)C2)ccc1=O` [Compound I-18], for which the DC50 was greater than 10 µM in experiment [1] and 1 to 10 µM in experiment [2].
The matching figures for `COc1cc2nn([C@H]3CC[C@H](CN(C)CC4CCN(c5cncc(N6CCCC(C(=O)Nc7ccc(=O)n(CC(=O)O)c7)C6)c5)CC4)CC3)cc2cc1NC(=O)c1cccc(C(F)(F)F)n1` (stereo partly drawn) [Compound I-19]: greater than 10 µM and greater than 10 µM.
The matching figures for `CCOC(=O)Cn1cc(NC(=O)C2CCCN(c3cncc(N4CCC(CN(C)C[C@H]5CC[C@H](n6cc7cc(NC(=O)c8cccc(C(F)(F)F)n8)c(OC)cc7n6)CC5)CC4)c3)C2)ccc1=O` (stereo partly drawn) [Compound I-20]: greater than 10 µM and greater than 10 µM.
The matching figures for `O=C(O)Cn1cc(NC(=O)[C@H]2CCCN(c3cncc(CCCCNC[C@H]4CC[C@H](n5cc(NC(=O)c6cnn7ccc(N8C[C@H]9C[C@@H]8CO9)nc67)c(C(F)F)n5)CC4)c3)C2)ccc1=O` [Compound I-21]: greater than 10 µM and 1 to 10 µM.
